According to patent US7932290B2, “Method for the treatment of metabolic disorders” (Wellstat Biologics Corporation, priority 2003, dated 2011):

Key:
[1] = target: T1, Mouse PPARα LBD fusion protein (Mus musculus, UniProt P23204); assay: Transcription activation potential, GAL4 luciferase reporter in C3A cells; format: cell-based
T1 sequence (P23204 239-466): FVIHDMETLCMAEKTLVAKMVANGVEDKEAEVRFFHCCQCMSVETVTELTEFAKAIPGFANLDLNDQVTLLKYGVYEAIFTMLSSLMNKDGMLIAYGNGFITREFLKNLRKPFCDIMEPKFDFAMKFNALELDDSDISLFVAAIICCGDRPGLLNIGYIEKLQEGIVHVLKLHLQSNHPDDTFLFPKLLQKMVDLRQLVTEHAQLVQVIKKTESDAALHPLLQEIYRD
Procedure: (§1) Cells were seeded in 24 well plates the day prior to transfection at 5×10^4−2×10^5 cells/well, depending upon cell type. Cells were transfected using Lipofectamine 2000 reagent from Invitrogen. A total of 0.8 μg DNA/well was added to 50 μL of Optimem Reduced Serum media (serum free; Gibco). Lipofectamine 2000 was added (2.5 μL/well) to another tube containing 50 μL of Optimem media. Plasmid DNA was added at a ratio of 4:3 (reporter:activator); where appropriate, salmon sperm DNA was substituted for activator expressing plasmid. The reporter plasmid used was pFR-Luc, which has the firefly luciferase gene under the control of a GAL4 UAS ([…]) containing promoter. The activator expressing plasmids contain yeast GAL4 DNA binding domain (dbd) fusion of either human PPARα ligand binding domain (LBD; a.a. 167-468) or human PPARγ LBD (a.a. 176-479). DNA constructs containing the mouse PPARα or PPARγ LBD fused to the GAL4 DNA binding domain were also used. The two solutions were incubated at room temperature for 5 min, and then combined. The combined solution was incubated at room temperature for approximately 30 min. Cells were washed once with PBS, and 100 μL of transfection mix added to each well. Plates were incubated at 37° C. in a 5% CO2 incubator for 4.5 hr, followed by aspiration of the transfection mix, with plates refed using EMEM complete media (supplemented with 10% FBS, 1× Glutamine). 24 hr post-transfection, plates were treated with the appropriate compounds in EMEM complete media, followed by washing once with PBS and addition of 100 μL 1× reporter lysis buffer/well (Promega) 24 hr after treatment. Plates went through one freeze/thaw cycle prior to analysis. Approximately 10 μL of lysate was added to 100 μL of firefly luciferase substrate, mixed by pipetting, and analyzed on a luminometer for 10 s using the integration function (relative luciferase units/RLU) or on a Microbeta Trilux (luciferase counts per second/LCPS). Each treatment was performed in triplicate, and in multiple, separate experiments.

[2] = target: T2, Human PPARα LBD fusion protein (Homo sapiens, UniProt Q07869); assay: as above; format: cell-based
T2 construct: a.a; 167-468)
T2 sequence (Q07869 167-468): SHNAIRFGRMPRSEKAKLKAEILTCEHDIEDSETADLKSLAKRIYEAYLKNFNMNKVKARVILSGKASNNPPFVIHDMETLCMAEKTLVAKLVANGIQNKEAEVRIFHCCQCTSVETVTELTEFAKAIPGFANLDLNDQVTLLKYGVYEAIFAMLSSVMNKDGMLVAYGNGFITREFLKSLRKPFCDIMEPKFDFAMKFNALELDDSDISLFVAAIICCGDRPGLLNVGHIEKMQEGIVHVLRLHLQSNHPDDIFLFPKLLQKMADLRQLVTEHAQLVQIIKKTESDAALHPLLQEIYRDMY
Procedure: as §1

[3] = test system: male ob/ob mouse model of Type II diabetes; assay: Antidiabetic effects in ob/ob mice (serum chemistry after 2 weeks daily oral dosing); format: in vivo; parameters: key to Glucose ± SEM: serum glucose in mg/dl; Triglycerides ± SEM / Free Fatty Acids ± SEM: unit not given here; conditions: for Triglycerides ± SEM / Glucose ± SEM / Free Fatty Acids ± SEM: 60 mg/kg; for Glucose / Glucose (% of Control): 60 mg/kg daily oral, 2 weeks; for Glucose ± SEM: Table 15
Procedure: Obese (ob/ob) mice have a defect in the protein leptin, a regulator of appetite and fuel metabolism, leading to hyperphagia, obesity and diabetes.
Male obese (ob/ob homozygote) C57BL/6J mice, approximately 8 weeks of age, were obtained from Jackson Labs (Bar Harbor, Me.) and randomly assigned into groups of 5 animals each such that the body weights (45-50 g) and serum glucose levels (≧300 mg/dl in fed state) were similar between groups. A minimum of 7 days was allowed for adaptation after arrival. All animals were maintained under controlled temperature (23° C.), relative humidity (50±5%) and light (7:00-19:00), and allowed free access to standard chow (Formulab Diet 5020 Quality Lab Products, Elkridge, Md.) and water.
Treatment cohorts were given daily oral doses of vehicle (1% hydroxypropyl-methylcellulose), Compounds BI, CF, CA, CB, CC, or CD for 2 weeks. At the end of the treatment period 100 μl of venous blood was withdrawn in a heparinized capillary tube from the retro-orbital sinus of ob/ob mice for serum chemistry analysis.

Structure (SMILES) | transcription activation potential (luciferase) ± standard deviation ([1]; 100 μM, Table 21a) [RLU] | Triglycerides ± SEM [3] | Glucose [3] [mg/dL] | Glucose (% of Control) [3] | Glucose ± SEM [3] | Free Fatty Acids ± SEM [3] | also measured
CC(C(=O)O)c1cccc(Oc2ccccc2)c1 (centres unmarked) [fenoprofen, reference compound] | 4440 ± 213 |  |  |  |  |  | 
Cc1cccc(Nc2cc(Cl)nc(SCC(=O)O)n2)c1C [Wy, reference compound] | 55972 ± 5162 |  |  |  |  |  | transcription activation potential (luciferase) ± standard deviation ([2]; 1 μM): 181.8 ± 47.6 LCPS; transcription activation potential (luciferase) ± standard deviation ([2]; 3 μM): 153.1 ± 2.8 LCPS; transcription activation potential (luciferase) ± standard deviation ([2]; 10 μM): 315.4 ± 36.5 LCPS; transcription activation potential (luciferase) ± standard deviation ([2]; 30 μM): 648.6 ± 47.5 LCPS; transcription activation potential (luciferase) ± standard deviation ([2]; 100 μM): 412.23 ± 114 LCPS; transcription activation potential (luciferase) ± standard deviation ([1]; 1 μM, Table 20a): 406.73 ± 80.11 LCPS; transcription activation potential (luciferase) ± standard deviation ([1]; 3 μM, Table 20a): 295.8 ± 40.31 LCPS; transcription activation potential (luciferase) ± standard deviation ([1]; 10 μM, Table 20a): 324.37 ± 11.06 LCPS; transcription activation potential (luciferase) ± standard deviation ([1]; 30 μM, Table 20a): 414 ± 122.52 LCPS; transcription activation potential (luciferase) ± standard deviation ([1]; 100 μM, Table 20a): 325.3 ± 91.83 LCPS; transcription activation potential (luciferase) ± standard deviation ([1]; 200 μM, Table 20a): 115.2 ± 21.52 LCPS
Cc1cccc(C)c1COc1cccc(C(C=O)CC(N)=O)c1 (centres unmarked) [CC, 3-(3-(2,6,-Dimethylbenzyloxy)phenyl)-4-oxobutyramide] |  | 91.6 ± 13.4 | 444.4 ± 89.5 | 105.0 ± 21.0 % of Control | 444.4 ± 89.5 |  | 
COC(=O)CC(=O)c1cccc(OCc2c(C)cccc2C)c1 [CB, Methyl 3-(3-(2,6-Dimethylbenzyloxy)phenyl)-3-oxopropionate] |  | 118.8 ± 18.0 | 494.4 ± 72.3 | 117.0 ± 17.0 % of Control | 494.4 ± 72.3 | 2076.2 ± 169.0 | 
Cc1cccc(C)c1COc1ccccc1 [CA, (2,6-Dimethylbenzyloxy)benzene] |  | 92.6 ± 13.7 | 402.6 ± 61.0 | 95 ± 14.0 % of Control | 402.6 ± 61.0 | 1572.2 ± 118.0 | 
Cc1cccc(C)c1COc1cccc(C(=O)CCCC(=O)O)c1 [CD, 5-(3-(2,6-Dimethylbenzyloxy)phenyl)-5-oxopentanoic acid] |  | 119.0 ± 14.2 | 505.6 ± 63.5 | 119.0 ± 15.0 % of Control | 505.6 ± 63.5 | 1961.8 ± 194.2 | 
